Data taken from patent US20040058425A1, “Crystal structure” (priority 2001, published 2004).

Key:
[1] = system: PDHK; assay: Assay to measure whether compounds inhibit PDHK activity (kinase reaction with porcine PDH and MgATP, then residual PDH activity by NAD reduction at 340 nm); format: biochemical; details: result in words
Description: Compounds were assessed for inhibition of PDHK in an assay adapted from Espinal, J. et al (1995) Drug Development Res. 35, 130-136. In the first part of the assay, compounds were incubated with porcine PDH (Sigma P-7032) and MgATP, and the reaction was stopped after defined intervals. In the second part of the assay, the residual PDH activity was measured by monitoring the rate of reduction of NAD at 340 nm.
The assay was performed in flat-bottom 96-well microtitre plates, using a final volume of 50 μl for the first part of the assay (kinase reaction), and 250 μl for the PDH reaction. At first, 10 μl test compound in a suitable diluent, 20 μl kinase buffer (20 mM potassium phosphate, pH7.0, 4 mM MgCl2, 4 mM dithiothreitol) and 10 μl PDH (Sigma, P-7032, diluted with water to a final concentration of 1.83 mg/ml) were mixed and incubated for 10 min; then 10 μl ATP solution (125 μM in kinase buffer) was added to start the reaction.
The incubations were done at 30° C. The kinase reaction was terminated after defined intervals (usually 0, 10, 20, 30, 60, and 90 min) by initiating the PDH reaction. […] Kinetic readings were then taken at 340 nm conducted at 12 sec intervals for 20 min with shaking for 1 sec before each reading was taken, in a SpectraMax plate reader. […]

[2] = system: PDHK; assay: Kinase activity of PDHK using a PDHK specific substrate peptide; format: biochemical; details: data not shown

| Compound | ATP dependent inhibition of the PDH complex [1] | inhibition of the kinase activity of PDHK [2] |
| --- | --- | --- |
| CC1CN(C(=O)C(C)(O)C(F)(F)F)C(C)CN1C(=O)c1ccc(C#N)cc1 (stereo not shown) [Compound 1] | prevent ATP dependent inhibition of the PDH complex | do not inhibit the kinase activity of PDHK |
| N-{4-[(ethylanilino)sulfonyl]-2-methylphenyl}-3,3,3-trifluoro-2-hydroxy-2-methylpropanamide [Compound 2] | prevent ATP dependent inhibition of the PDH complex | do not inhibit the kinase activity of PDHK |
